Reference: patent US5780253A, “Screening method for detection of herbicides” (Sandoz Ltd., priority 1996, dated 1998)
“Also recorded” adds a separate entry of the source. Read-outs that look alike come from different tables or passages of the source.

Tests used:
Arabidopsis [1] = experiment: Arabidopsis reversal (reversion) assay: growth with probe compound in the presence of antidote compounds; assay type: in vivo; settings: for Inhibition of AMP biosynthesis (conversion of IMP to AMP), in words: concluded from Arabidopsis antidote reversal; for Growth (in words): without antidote; for Effect of the antidote alone on growth of the plant (in words): control columns 1 through 3, no probe compound
Description: Test conditions suitable for growth are those conditions wherein the control plant material used in the screen, described herein, will grow normally. These conditions are easily determined by one skilled in the art. Reversal conditions are those conditions in which inhibition which occurs at the lethal concentration of a probe compound is reversed as determined by exposure of the plant material to combinations of the probe compound and to one or more antidote compounds. […] An antidote compound is a compound that causes reversal of inhibition of a probe compound. As an example, with respect to inhibitors of ADSS, antidotes would include AMP, ADP, adenosine and adenine.
The solutions are filter sterilized prior to addition. FIG. 4 represents a typical set up in a reversion assay for discovering inhibitors of AMP biosynthesis.
The left side (columns 1-3) of the 24-well microtiter plate is designed for controls, and the right side (columns 4-6) are designated for one probe compound. […] Rows B, C and D are supplemented with three doses of an antidote for the control and probe compound. […] The three doses are 50, 100 and 150 μl respectively of the stock solutions.
Forty ml of Arabidopsis growth media as described in Example 1 is sterilized and allowed to cool to about 45° C. A probe compound (at 1.5×lethal concentration) is added to columns 4 through 6 (right half of the plate). Media is distributed at 1.0 ml per well to all wells. Sterile seeds are added to each well as described above. As in Example 1, the plate is incubated and growth is scored.

Arabidopsis [2] = experiment: Arabidopsis bioassay, determination of the lethal concentration (LC 90) of the probe compound
IMP to GMP conversion = settings: known; cited from earlier work
[3] = antidote Adenosine + Guanosine 0.5-5.0 mM
[4] = antidote Cytidine + Uridine 0.5-5.0 mM
[5] = antidote Hypoxanthine 0.5-5.0 mM
[6] = read-out: lethal concentration (LC 90), Arabidopsis seeds, 28° C., 7 days, approximately, 90% or greater growth inhibition

| Compound | Growth, % of Control (Arabidopsis [1]; antidote ADP 0.5-5.0 mM) | Growth, % of Control (Arabidopsis [1]; antidote AMP 0.5-5.0 mM) | Growth, % of Control (Arabidopsis [1]; antidote ATP 0.5-5.0 mM) | Growth, % of Control (Arabidopsis [1]; antidote Adenine 0.5-5.0 mM) | Growth, % of Control (Arabidopsis [1]; antidote Adenosine 0.5-5.0 mM) | Growth, % of Control (Arabidopsis [1]; [3]) | Growth, % of Control (Arabidopsis [1]; [4]) | Growth, % of Control (Arabidopsis [1]; antidote Guanine 0.5-5.0 mM) | Growth, % of Control (Arabidopsis [1]; antidote Guanosine 0.5-5.0 mM) | Growth, % of Control (Arabidopsis [1]; [5]) | Growth, % of Control (Arabidopsis [1]; antidote IMP 0.5-5.0 mM) | Inhibition of AMP biosynthesis (conversion of IMP to AMP), in words (Arabidopsis [1]) | Growth (in words) (Arabidopsis [1]) | further results |
| --- | --- | --- | --- | --- | --- | --- | --- | --- | --- | --- | --- | --- | --- | --- |
| O=C1NC(=O)C2(N1)O[C@H](CO)[C@@H](O)[C@H]2O (single isomer, unassigned) [hydantocidin, reference compound] | 100 % of Control | 100 % of Control | 40 % of Control | 60 % of Control | 80-100 % of Control | 80 % of Control | 0 % of Control | 0 % of Control | 0 % of Control | 0 % of Control | 5 % of Control | blocking AMP biosynthesis; also recorded: inhibition of AMP biosynthesis | Growth is not observed | Growth / reversal of growth inhibition (in words) (Arabidopsis [1]; antidote IMP): did not reverse growth inhibition; Growth / reversal of growth inhibition (in words) (Arabidopsis [1]; antidotes adenosine and AMP, rows B and C, wells 4 through 6): Complete growth; IC90 (Arabidopsis [2]; [6]): ~2 µM |
| Nc1ncnc2c1ncn2[C@@H]1O[C@H](COP(=O)(O)O)[C@@H](O)[C@H]1O [AMP, adenosine monophosphate, reference compound] |  |  |  |  |  |  |  |  |  |  |  |  |  | Effect of the antidote alone on growth of the plant (in words) (Arabidopsis [1]): no effect on the growth of the plant |
| COc1c(C)c2c(c(O)c1C/C=C(\C)CCC(=O)O)C(=O)OC2 [MPA, Mycophenolic Acid] |  |  |  |  |  |  |  |  |  |  |  |  | Growth is not observed | Inhibition of IMP to GMP conversion, in words (IMP to GMP conversion): known inhibitor of IMP to GMP conversion; IC90 (Arabidopsis [2]; Arabidopsis thaliana, 168 h, read-out: lethal concentration): 12.5 µg/mL |
| CC(=O)N1C(=O)NC2(OC(COP(=O)(O)O)C(O)C2O)C1=O (stereo not shown) [N-acetylphosphohydantocidin, 5'-Phospho-N-acetyl-hydantocidin] | 100 % of Control | 100 % of Control | 40 % of Control | 65 % of Control | 80-100 % of Control | 80 % of Control | 0 % of Control | 0 % of Control | 0 % of Control | 0 % of Control | 5 % of Control |  | Growth is not observed | Growth, % of Control (Arabidopsis [1]; No antidote, 0 mM, probe compound at 1.5×lethal concentration): 0 % of Control; IC90 (Arabidopsis [2]; [6]): ~8 µM |
| NC(=O)c1ncn([C@@H]2O[C@H](CO)[C@@H](O)[C@H]2O)n1 [TCR, 1,2,4-triazole-3-carboxamide-1-ribose, reference compound] |  |  |  |  |  |  |  |  |  |  |  |  | Growth is not observed |  |
| Nc1ncnc2c1ncn2[C@@H]1O[C@H](CO)[C@@H](O)[C@H]1O [adenosine, reference compound] |  |  |  |  |  |  |  |  |  |  |  |  |  | Effect of the antidote alone on growth of the plant (in words) (Arabidopsis [1]): no effect on the growth of the plant |
| O=CN(O)CC(=O)O [hadacidin, reference compound] |  |  |  |  |  |  |  |  |  |  |  | blocking AMP biosynthesis | Growth is not observed | IC90 (Arabidopsis [2]; Arabidopsis thaliana, 168 h, read-out: lethal concentration (LC 90)): ~50 µM |
| N-acetyl hydantocidin | 100 % of Control | 100 % of Control | 40 % of Control | 60 % of Control | 80-100 % of Control | 80 % of Control | 0 % of Control | 0 % of Control | 0 % of Control | 0 % of Control | 5 % of Control | blocking AMP biosynthesis | Growth is not observed |  |
